Test results published in US7713994B2 (Wyeth LLC, priority 2005, dated 2010).
Like-named read-outs stand apart in the source and are kept apart here.

Legend:
cyclin E/CDK2 enzyme = target: T1, cyclin E/CDK2 enzyme (Homo sapiens, UniProt P24941); experiment: CDK2 ELISA kinase assay (phospho-Rb ser 795 detection); format: biochemical
T1 construct: made in house; host or cells: Sf9 insect cells, recombinant baculovirus
Protocol: (§1) • 1. High-binding ELISA microtiter plates (Costar) were coated with 40 μl of the kinase substrate (GST fusion of C-terminal fragment of the retinoblastoma susceptibility gene product) diluted to 10 μg/ml in tris-buffered saline (TBS), overnight at 4° C. • 2. Non-specific binding sites were blocked for 1 hour at 4° C. with Superblock in TBS (Pierce), and the plates rinsed with water. • 3. For the screen, 1.5 μl of test compound (200 μg/ml stock in 20% DMSO/20 mM HEPES, pH 7.5) was added to each well. Final dose of the test compound in the assay was 10 ug/ml. […] The kinase reaction (30 μl) was dispensed into each well. Reactions contained 200 μM ATP, 0.5 mg/ml bovine serum albumin (BSA; Sigma), and 0.5 μl partially purified cyclin D1/cdk 4 enzyme*. The enzyme complex is expressed in insect cells (Sf9) infected with recombinant baculovirus and partially purified using ammonium sulfate fractionation. Reaction volumes were adjusted to 30 μl with kinase assay buffer (50 mM HEPES, pH 7.5, 10 mM MgCl2, 5% glycerol, 10 mM 2-mercaptoethanol). • *: For CDK2 assay, 1.0 μl cyclin E/CDK2 enzyme (diluted 1:1000 in kinase assay buffer) was used. The enzyme is isolated from insect cells (Sf9) infected with recombinant baculovirus and partially purified using ammonium sulfate fractionation. For CDK1 assay, 0.08 μl cyclin B/CDK1 enzyme [New England BioLabs; the enzyme is isolated from insect cells (Sf9) infected with recombinant baculovirus carrying human cdc 2 and human cyclin B] was used.
(§2) […] • 5. Plates were incubated at 30° C. for 1 hour. • 6. The reaction mixture was removed by aspiration and replaced with 250 μl TBS containing 0.1% Tween-20 and 5% nonfat dry milk (blocking buffer). The plates were incubated at 4° C. for 1 hour. • 7. The blocking buffer was removed and replaced with 50 μl of the primary antibody [anti-phospho-Rb ser 795 (New England BioLabs) diluted 1:1000 in blocking buffer]. Incubation was at 4° C. for 16-20 hours. • 8. The wells were rinsed 3 times with 250 μl of TBS containing 0.1% Tween-20 followed by the addition of 50 μl of secondary antibody [anti-rabbit IgG conjugated to horseradish peroxidase (Amersham Life Science) diluted 1:1000 in blocking buffer]. • 9. After a 1 hour incubation at room temperature, the wells were rinsed 3 times with 250 μl of TBS/0.1% Tween 20. • 10. TMB (3,3′,5,5′-tetramethylbenzidine dihydrochloride) substrate solution (100 μl; Pierce) was added to each well and the color development reaction allowed to proceed 5-10 minutes at room temperature with shaking. The reaction was stopped by the addition of 2N sulfuric acid (100 μl) and the absorbance values read at 450 nm in a microplate reader (Molecular Devices). Analysis of Results: • 1. The percentage of the absorbance value in wells containing the test compound relative to control wells (no test agent) was determined. • 2. IC50 values of selected compounds were determined from inhibition curves, after subtracting background values (no substrate).

cyclin D1/cdk 4 enzyme = target: T2, cyclin D1/cdk 4 enzyme (Homo sapiens, UniProt P11802); experiment: CDK4 ELISA kinase assay (phospho-Rb ser 795 detection); format: biochemical
T2 construct: made in house; host or cells: Sf9 insect cells, recombinant baculovirus
How it was run: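 Wells were coated overnight with GST-Rb C-terminal fragment, then blocked. Compound (10 ug/ml final) and cyclin/CDK enzyme from baculovirus-infected Sf9 cells with 200 μM ATP reacted 1 h at 30° C. Ser795 phosphorylation was detected by ELISA at 450 nm.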

cyclin B/CDK1 enzyme = target: T3, cyclin B/CDK1 enzyme (Homo sapiens, UniProt P06493); experiment: CDK1 ELISA kinase assay (phospho-Rb ser 795 detection); format: biochemical
T3 construct: purchased New England BioLabs; host or cells: Sf9 insect cells, recombinant baculovirus
Protocol: as §1, §2

BT474 = experiment: Cytotoxicity assay (SRB), BT474; format: cell-based
How it was run: (§3)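 Percentage survival is derived from SRB absorbance (540 nm) versus untreated cells. Exposures were 3 days, except 6 days for BT474, at 37 °C and 7% CO2.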

HCT-116 = experiment: Cytotoxicity assay (SRB), HCT-116; format: cell-based; conditions: HCT116 cells, SRB, read-out: In Vitro Cellular Activity IC50 HCT116
How it was run: as §3

LoVo = experiment: Cytotoxicity assay (SRB), LoVo; format: cell-based; conditions: LoVo cells, SRB, read-out: In Vitro Cellular Activity IC50 LOVO
How it was run: as §3

MCF-7 = experiment: Cytotoxicity assay (SRB), MCF-7; format: cell-based; conditions: MCF-7 cells, SRB, read-out: In Vitro Cellular Activity IC50 MCF-7
How it was run: as §3

[1] = In Vitro Enzyme Assays, read-out: CDK2 IC50
[2] = In Vitro Enzyme Assays, 200 μM ATP, read-out: CDK4 IC50
[3] = In Vitro Enzyme Assays, read-out: CDK1 IC50
[4] = Homo sapiens, BT-474, 144 h, BT474 cells, 6 days, SRB; read-out: In Vitro Cellular Activity IC50 BT474
[5] = Homo sapiens, HCT-116, 72 h, 3 days
[6] = Homo sapiens, LoVo, 72 h, 3 days
[7] = Homo sapiens, MCF7, 72 h, 3 days
[8] = In Vitro Enzyme Assay, cyclin E/CDK2, read-out: CDK2 IC50
[9] = In Vitro Enzyme Assay, cyclin D1/cdk 4, read-out: CDK4 IC50
[10] = In Vitro Enzyme Assay, cyclin B/CDK1, read-out: CDK1 IC50

T2 sequence (P11802 whole entry, species assumed): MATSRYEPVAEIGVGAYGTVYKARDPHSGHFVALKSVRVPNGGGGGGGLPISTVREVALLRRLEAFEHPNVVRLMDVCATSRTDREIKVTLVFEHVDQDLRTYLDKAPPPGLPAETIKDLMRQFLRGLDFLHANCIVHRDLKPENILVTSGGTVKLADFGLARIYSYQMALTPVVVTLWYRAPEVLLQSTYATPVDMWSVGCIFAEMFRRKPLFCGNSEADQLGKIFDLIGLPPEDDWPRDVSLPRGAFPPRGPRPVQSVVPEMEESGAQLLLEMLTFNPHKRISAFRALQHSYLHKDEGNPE
T2 sequence (P24385 whole entry partner, species assumed): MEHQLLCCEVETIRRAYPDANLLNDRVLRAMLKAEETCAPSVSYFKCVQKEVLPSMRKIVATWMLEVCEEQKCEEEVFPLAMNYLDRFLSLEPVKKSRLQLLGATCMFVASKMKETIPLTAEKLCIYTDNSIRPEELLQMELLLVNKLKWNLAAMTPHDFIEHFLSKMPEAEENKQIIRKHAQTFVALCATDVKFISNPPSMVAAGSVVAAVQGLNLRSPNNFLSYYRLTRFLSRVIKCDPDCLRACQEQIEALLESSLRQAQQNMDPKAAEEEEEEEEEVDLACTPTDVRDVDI
T3 sequence (P06493 whole entry): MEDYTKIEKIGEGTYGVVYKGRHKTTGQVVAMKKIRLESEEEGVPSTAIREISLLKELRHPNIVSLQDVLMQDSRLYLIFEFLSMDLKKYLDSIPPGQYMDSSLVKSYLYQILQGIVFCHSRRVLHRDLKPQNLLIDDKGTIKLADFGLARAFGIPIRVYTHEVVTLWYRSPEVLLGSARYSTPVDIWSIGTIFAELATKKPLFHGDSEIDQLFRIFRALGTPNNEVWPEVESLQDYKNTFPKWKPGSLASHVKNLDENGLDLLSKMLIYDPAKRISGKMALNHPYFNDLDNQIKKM
T3 sequence (P14635 whole entry partner): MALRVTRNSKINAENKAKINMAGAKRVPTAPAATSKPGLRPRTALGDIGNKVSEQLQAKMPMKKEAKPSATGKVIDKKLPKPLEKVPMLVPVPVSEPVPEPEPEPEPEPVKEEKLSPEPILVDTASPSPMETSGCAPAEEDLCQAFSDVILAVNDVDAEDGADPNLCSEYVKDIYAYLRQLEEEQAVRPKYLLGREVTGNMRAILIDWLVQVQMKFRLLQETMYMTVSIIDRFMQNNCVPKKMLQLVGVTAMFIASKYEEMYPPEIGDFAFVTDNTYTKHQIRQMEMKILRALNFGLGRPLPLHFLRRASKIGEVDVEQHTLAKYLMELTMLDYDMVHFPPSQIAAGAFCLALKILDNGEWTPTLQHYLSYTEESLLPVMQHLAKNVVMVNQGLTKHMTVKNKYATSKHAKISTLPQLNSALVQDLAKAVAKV

Row | SMILES | IC50 (cyclin E/CDK2 enzyme; [1]) | IC50 (cyclin D1/cdk 4 enzyme; [2]) | IC50 (cyclin E/CDK2 enzyme; [8]) | IC50 (cyclin D1/cdk 4 enzyme; [9]) | IC50 (BT474; [4]) | IC50 (HCT-116; [5]) | IC50 (LoVo; [6]) | IC50 (MCF-7; [7]) | other results
1 | O=C1NC(=O)c2ccc(Br)cc2/C1=C/NCc1ccc(O)c(O)c1 [Example 40, (4Z)-6-Bromo-4-{[(3,4-dihydroxybenzyl)amino]methylene}isoquinoline-1,3(2H,4H)-dione] | > 50 µM | 0.04 µM |  |  |  |  |  |  | IC50 (cyclin B/CDK1 enzyme; [3]): > 50 µM
2 | COc1ccc(CN/C=C2\C(=O)NC(=O)c3ccc(Cl)cc32)cc1O [Example 67, (4Z)-6-Chloro-4-{[(3-hydroxy-4-methoxybenzyl)amino]methylene}isoquinoline-1,3(2H,4H)-dione] | > 50 µM | 0.23 µM |  |  |  |  |  |  | IC50 (cyclin B/CDK1 enzyme; [3]): > 50 µM
3 | CN1CCN(c2ccc(N/C=C3\C(=O)NC(=O)c4ccc(-c5ccc(C=O)o5)cc43)cc2)CC1 [Example 124, 5-[(4Z)-4-({[4-(4-Methylpiperazin-1-yl)phenyl]amino}methylene)-1,3-dioxo-1,2,3,4-tetrahydroisoquinolin-6-yl]-2-furaldehyde] | > 50 µM | 0.36 µM |  |  |  |  |  |  | IC50 (BT474; Homo sapiens, BT-474, 144 h, BT474 cells, SRB, 6 days; read-out: In Vitro Cellular Activity IC50 BT474): 9.1 µM; IC50 (HCT-116; Homo sapiens, HCT-116, 72 h, three days): 2.6 µM; IC50 (LoVo; Homo sapiens, LoVo, 72 h, three days): 5 µM; IC50 (MCF-7; Homo sapiens, MCF7, 72 h, three days): 7.9 µM
4 | Nc1cc(CN/C=C2\C(=O)NC(=O)c3ccc(Br)cc32)cc(O)c1O [Example 204, (4Z)-4-{[(3-Amino-4,5-dihydroxybenzyl)amino]methylene}-6-bromoisoquinoline-1,3(2H,4H)-dione] | 7 µM | 0.22 µM |  |  |  |  |  |  | IC50 (cyclin B/CDK1 enzyme; [3]): > 50 µM
5 | O=C1NC(=O)c2ccc(Br)cc2C1=CNc1ccc(-c2cccnc2)cc1 [Example 349, 6-Bromo-4-[(4-pyridin-3-yl-phenylamino)-methylene]-4H-isoquinoline-1,3-dione] | 36.3 µM | 37.1 µM |  |  |  |  |  |  | IC50 (cyclin B/CDK1 enzyme; [3]): > 50 µM
6 | CN(C)CCNC(=O)C1CCN(c2ccc(N/C=C3\C(=O)NC(=O)c4ccc(I)cc43)cc2)CC1 [Example 433, N-[2-(Dimethylamino)ethyl]-1-(4-{[(Z)-(6-iodo-1,3-dioxo-2,3-dihydroisoquinolin-4(1H)-ylidene)methyl]amino}phenyl)piperidine-4-carboxamide] | > 50 µM | 1.2 µM |  |  | 4.5 µM | 2 µM | 2.8 µM | 3.1 µM | 
7 | O=C1NC(=O)c2ccc(I)cc2/C1=C/NCc1ccc(-c2ccco2)c(O)c1 [Example 505, 4-[(4-Furan-2-yl-3-hydroxy-benzylamino)-methylene]-6-iodo-4H-isoquinoline-1,3-dione] |  |  | 8.4 µM |  | 0.26 µM | 0.38 µM | 0.27 µM | 0.7 µM | 
8 | O=C1NC(=O)c2ccc(I)cc2/C1=C/NCc1ccc(-c2cccnc2)c(O)c1 [Example 515, 4-[(3-Hydroxy-4-pyridin-3-yl-benzylamino)-methylene]-6-iodo-4H-isoquinoline-1,3-dione] |  |  | 3.6 µM |  | 0.34 µM | 0.44 µM | 0.38 µM | 1.1 µM | 

Further lines, with some results ahead:

Row | IC50 (cyclin E/CDK2 enzyme; [1]) | IC50 (cyclin D1/cdk 4 enzyme; [2]) | IC50 (cyclin E/CDK2 enzyme; [8]) | IC50 (cyclin D1/cdk 4 enzyme; [9]) | SMILES | IC50 (BT474; [4]) | IC50 (HCT-116; [5]) | IC50 (LoVo; [6]) | IC50 (MCF-7; [7]) | other results
9 |  |  |  | 0.11 µM | O=C1NC(=O)c2ccc(I)cc2/C1=C/NCc1ccn(-c2ccccc2)c(=O)c1 [Example 518, (4Z)-6-Iodo-4-({[(2-oxo-1-phenyl-1,2-dihydropyridin-4-yl)methyl]amino}methylene)isoquinoline-1,3(2H,4H)-dione] |  |  |  |  | IC50 (BT474; BT474 cells, 6 days, SRB; read-out: In Vitro Cellular Activity IC50 BT474): 0.08 µM; IC50 (HCT-116; 3 days): 0.23 µM; IC50 (cyclin B/CDK1 enzyme; [10]): > 50 µM; IC50 (LoVo; 3 days): 0.15 µM; IC50 (MCF-7; 3 days): 0.64 µM
10 |  |  | 12.1 µM | 0.01 µM | O=C1NC(=O)c2ccc(I)cc2/C1=C/NCc1cc(O)c(-c2ccoc2)cc1F [Example 520, 4-[(2-Fluoro-4-furan-3-yl-5-hydroxy-benzylamino)-methylene]-6-iodo-4H-isoquinoline-1,3-dione] | 0.66 µM | 1.2 µM | 0.9 µM | 2.2 µM | 
11 |  |  |  | 2.12 µM | Cc1cccc(-c2ccc3c(c2)C(=CNCc2ccc(O)c(O)c2)C(=O)NC3=O)c1 [Example 782, 4-[(3,4-Dihydroxy-benzylamino)-methylene]-6-m-tolyl-4H-isoquinoline-1,3-dione] | 20.3 µM | 15.8 µM | 15.8 µM | 14.3 µM | IC50 (cyclin B/CDK1 enzyme; [10]): > 50 µM
12 |  |  | 23.1 µM | 0.29 µM | N#CCc1ccc(C=Cc2ccc3c(c2)C(=CNCc2ccc(O)c(O)c2)C(=O)NC3=O)cc1 [Example 805, [4-(2-{4-[(3,4-Dihydroxy-benzylamino)-methylene]-1,3-dioxo-1,2,3,4-tetrahydro-isoquinolin-6-yl}-vinyl)-phenyl]-acetonitrile] | 21.9 µM | 13.8 µM | 36.3 µM | 33.9 µM | 
13 |  |  | 12.9 µM | 0.11 µM | COc1ccc(CNC=C2C(=O)NC(=O)c3ccc(C=CCN4CC(=O)NC4=O)cc32)cc1O [Example 826, 6-[3-(2,4-Dioxo-imidazolidin-1-yl)-propenyl]-4-[(3-hydroxy-4-methoxy-benzylamino)-methylene]-4H-isoquinoline-1,3-dione] | > 50 µM | 36.9 µM | > 50 µM | > 50 µM | 
14 |  |  |  | 0.17 µM | CN1CCN(c2ccc(NC=C3C(=O)NC(=O)c4ccc(-c5ccco5)cc43)cc2)CC1 [Example 830, 6-Furan-2-yl-4-{[4-(4-methyl-piperazin-1-yl)-phenylamino]-methylene}-4H-isoquinoline-1,3-dione] | 1.2 µM | 2.7 µM | 3.6 µM | 3.3 µM | IC50 (cyclin B/CDK1 enzyme; [10]): > 50 µM
15 |  |  |  | 0.29 µM | COc1ccc(CNC=C2C(=O)NC(=O)c3ccc(-c4ccc5ccccc5c4)cc32)cc1O [Example 834, 4-[(3-Hydroxy-4-methoxy-benzylamino)-methylene]-6-naphthalen-2-yl-4H-isoquinoline-1,3-dione] | 13.2 µM | 29.6 µM | 23.1 µM | 18.6 µM | IC50 (cyclin B/CDK1 enzyme; [10]): > 50 µM
